SMILES strings stand for the structures.

Test [1] deals with T1, human cathepsin F (Homo sapiens, UniProt Q9UBX1).
T1 sequence (Q9UBX1 271-484): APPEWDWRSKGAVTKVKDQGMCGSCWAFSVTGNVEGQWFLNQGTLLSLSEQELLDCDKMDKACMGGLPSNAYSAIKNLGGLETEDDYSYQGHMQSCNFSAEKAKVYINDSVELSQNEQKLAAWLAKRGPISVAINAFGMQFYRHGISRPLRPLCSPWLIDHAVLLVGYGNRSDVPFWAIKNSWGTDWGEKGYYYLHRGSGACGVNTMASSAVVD
Put plainly: Cathepsin F assay (hCat F). It counts as biochemical. Conditions: human cathepsin F 10 nM, Z-Phe-Arg-AMC 8 μM, pH 5.5, 15 min preincubation; read-out: hCat F IP. The essentials: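 Fluorogenic read-out: cleavage of Z-Phe-Arg-AMC (8 μM in added buffer) was followed at Ex 360/Em 460 nm for 20 min, with dose-response fitting of percent inhibition. Before substrate addition, 10 nM human enzyme was incubated 15 min at room temperature with compounds (DMSO stocks 500–0.025 μM) in pH 5.5 MES/EDTA/DTT buffer containing 10% DMSO.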

For test [2], the target named is human cathepsin K (UniProt P43236). The test can be described thus: Cathepsin K Assay (hrbCat K). The test is classed as biochemical. Conditions: human cathepsin K 0.4 nM, Z-Leu-Arg-AMC 8 μM, pH 5.5, 15 min preincubation; read-out: hrbCat K IP. In a few lines: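 Human cathepsin K (0.4 nM) in pH 5.5 MES buffer with EDTA, DTT and 10% DMSO was preincubated 15 min at room temperature with compound from a ⅓ dilution series (500-0.025 μM DMSO stocks). Z-Leu-Arg-AMC (8 μM) was then added, and AMC release was followed fluorometrically (Ex 360/Em 460 nm) for 30 min; inhibition was fitted to a dose-response model.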

Turning to `N#CC1(NC(=O)[C@@H]2CCCC[C@H]2c2oc(-c3ccncc3F)nc2-c2ccc(N3CCS(=O)(=O)CC3)cc2)CC1` [Example 30, (1R,2R)-N-(1-cyanocyclopropyl)-2-(4-(4-(1,1-dioxidothiomorpholino)phenyl)-2-(3-fluoropyridin-4-yl)oxazol-5-yl)cyclohcxanecarboxamide], the IC50 in test [1] amounted to 0.757 µM; in test [2], 0.00043 µM.

In the case of `CC(C)(c1nc(-c2ccc(N3CCS(=O)(=O)CC3)cc2)c([C@@H]2CCCC[C@H]2C(=O)NC2(C#N)CC2)o1)C(F)(F)F` [Example 115, (1R,2R)-N-(1-cyanocyclopropyl)-2-(4-(4-(1,1-dioxidothiomorpholino)phenyl)-2-(1,1,1-trifluoro-2-methylpropan-2-yl)oxazol-5-yl)cyclohexanecarboxamide], the IC50 in test [1] was determined as 1.77 µM; in test [2] it was 0.00134 µM.

In the case of `N#CC1(NC(=O)[C@@H]2CCCC[C@H]2c2oc(-c3cc(C(F)(F)F)ccn3)nc2-c2ccc(N3CCS(=O)(=O)CC3)cc2)CC1` [Example 83, (1R,2R)-N-(1-cyanocyclopropyl)-2-(4-(4-(1,1-dioxidothiomorpholino)phenyl)-2-(4-(trifluoromethyl)pyridin-2-yl)oxazol-5-yl)cyclohexanecarboxamide], the IC50 amounted to 4.15 µM in test [1] and 0.0013 µM in test [2].

Consider `N#CC1(NC(=O)[C@@H]2CCCC[C@H]2c2oc(-c3cccnc3)nc2-c2ccc(N3CCS(=O)(=O)CC3)cc2)CC1` [Example 29, (1R,2R)-N-(1-cyanocyclopropyl)-2-(4-(4-(1,1-dioxidothiomorpholino)phenyl)-2-(pyridin-3-yl)oxazol-5-yl)cyclohexanecarboxamide], for which the IC50 was found to be 0.565 µM in test [1] and 0.00048 µM in test [2].

For `N#CC1(NC(=O)[C@@H]2CCCC[C@H]2c2oc(N3CCC(F)(F)CC3)nc2-c2ccc(N3CCS(=O)(=O)CC3)cc2)CC1` [Example 4, (1R,2R)—N-(1-Cyanocyclopropyl)-2-(2-(4,4-difluoropiperidin-1-yl)-4-(4-(1,1-dioxidothiomorpholino)phenyl)oxazol-5-yl)cyclohexanecarboxamide], the IC50 in test [1] was not below 10 µM; in test [2], 0.00637 µM.

For `CC(C)(O)C(C#N)NC(=O)[C@@H]1CCCC[C@H]1c1oc(-c2ccc(F)cc2)nc1-c1ccc(N2CCS(=O)(=O)CC2)cc1` (single isomer, unassigned) [Example 159, (1R,2R)-N-((S or R)-1-cyano-2-hydroxy-2-methylpropyl)-2-(4-(4-(1,1-dioxidothiomorpholino)phenyl)-2-(4-fluorophenyl)oxazol-5-yl)cyclohexanecarboxamide], the IC50 was found to be 6.86 µM in test [1] and 0.0432 µM in test [2].

On to `N#CC(CC(F)(F)F)NC(=O)[C@@H]1CCCC[C@H]1c1oc(-c2ccc(F)cc2)nc1-c1ccc(N2CCS(=O)(=O)CC2)cc1` (single isomer, unassigned) [Example 132, (1R,2R)-N-((S or R)-1-cyano-3,3,3-trifluoropropyl)-2-(4-(4-(1,1-dioxidothiomorpholino)phenyl)-2-(4-fluorophenyl)oxazol-5-yl)cyclohexanecarboxamide], for which the IC50 in test [1] came out at 0.67 µM; in test [2], 0.00177 µM.

As to `CC(C#N)NC(=O)[C@@H]1CCCC[C@H]1c1oc(-c2ccc(F)cc2F)nc1-c1ccc(N2CCS(=O)(=O)CC2)cc1` (single isomer, unassigned) [Example 46, (1R,2R)-N-((S or R)-1-cyanoethyl)-2-(2-(2,4-difluorophenyl)-4-(4-(1,1-dioxidothiomorpholino)phenyl)oxazol-5-yl)cyclohexanecarboxamide], the values for the IC50 in test [1] and in test [2] were 0.23 µM and 0.00066 µM, respectively.

As for `C[C@@H](C#N)NC(=O)[C@@H]1CCCC[C@H]1c1oc(-c2ccc(F)cc2)nc1-c1ccc(N2CC[S+]([O-])CC2)cc1` [Example 141, (1R,2R)-N-((S)-1-cyanoethyl)-2-(2-(4-fluorophenyl)-4-(4-(1-oxidothiomorpholino)phenyl)oxazol-5-yl)cyclohexanecarboxamide], the IC50 in test [1] was found to be 0.167 µM; in test [2], 0.0009 µM.

As to `CC(C)(C)c1nc(-c2ccc(N3CCS(=O)(=O)CC3)cc2)c([C@@H]2CC[C@H](F)C[C@H]2C(=O)NC2(C#N)CC2)o1` [Example 147, (1R,2R,5S)-2-(2-(tert-butyl)-4-(4-(1,1-dioxidothiomorpholino)phenyl)oxazol-5-yl)-N-(1-cyanocyclopropyl)-5-fluorocyclohexane-carboxamide], the IC50 came out at 2.41 µM in test [1] and 0.0015 µM in test [2].

Regarding `CC(C)(O)C(C#N)NC(=O)[C@@H]1CCCC[C@H]1c1oc(-c2ccc(F)cc2)nc1-c1ccc(N2CCS(=O)(=O)CC2)cc1` (single isomer, unassigned) [Example 158, (1R,2R)-N-((R or S)-1-cyano-2-hydroxy-2-methylpropyl)-2-(4-(4-(1,1-dioxidothiomorpholino)phenyl)-2-(4-fluorophenyl)oxazol-5-yl)cyclohexanecarboxamide], the IC50 was not below 10 µM in test [1] and 9.74 µM in test [2].

Turning to `N#C[C@H](NC(=O)[C@@H]1CCCC[C@H]1c1oc(-c2ccc(F)cc2)nc1-c1ccc(N2CCS(=O)(=O)CC2)cc1)C1CCOCC1` [Example 127, (1R,2R)-N-((R)-cyano(tetrahydro-2H-pyran-4-yl)methyl)-2-(4-(4-(1,1-dioxidothiomorpholino)phenyl)-2-(4-fluorophenyl)oxazol-5-yl)cyclohexanecarboxamide], the IC50 is not below 10 µM in test [1] and 0.0485 µM in test [2].

With `N#CC1(NC(=O)[C@@H]2CCCC[C@H]2c2oc(-c3ccc(F)c(F)c3)nc2-c2ccc(N3CCS(=O)(=O)CC3)cc2)CC1` [Example 1, (1R,2R)—N-(1-Cyanocyclopropyl)-2-(2-(3,4-difluorophenyl)-4-(4-(1,1-dioxidothiomorpholino)phenyl)oxazol-5-yl)cyclohexanecarboxamide], the IC50 in test [1] is 0.573 µM; in test [2], 0.00039 µM.

In the case of `N#CC1(NC(=O)[C@@H]2CCCC[C@H]2c2oc(-c3ccccc3OC(F)F)nc2-c2ccc(N3CCS(=O)(=O)CC3)cc2)CC1` [Example 96, (1R,2R)-N-(1-cyanocyclopropyl)-2-(2-(2-(difluoromethoxy)phenyl)-4-(4-(1,1-dioxidothiomorpholino)phenyl)oxazol-5-yl)cyclohexanecarboxamide], the IC50 in test [1] was determined as 0.363 µM; in test [2], 0.00087 µM.

As to `N#CC1(NC(=O)[C@@H]2CCCC[C@H]2c2oc(-c3cnc(C(F)(F)F)nc3)nc2-c2ccc(N3CCS(=O)(=O)CC3)cc2)CC1` [Example 85, (1R,2R)-N-(1-cyanocyclopropyl)-2-(4-(4-(1,1-dioxidothiomorpholino)phenyl)-2-(2-(trifluoromethyl)pyrimidin-5-yl)oxazol-5-yl)cyclohexanecarboxamide], the results for the IC50 in test [1] and in test [2] were 2.52 µM and 0.00157 µM, respectively.

Regarding `Cc1nc(-c2ccc(N3CCS(=O)(=O)CC3)cc2)c([C@@H]2CCC(F)(F)C[C@H]2C(=O)NC2(C#N)CC2)s1` [Example 59, (1R,2R)-N-(1-cyanocyclopropyl)-2-(4-(4-(1,1-dioxidothiomorpholino)phenyl)-2-methylthiazol-5-yl)-5,5-difluorocyclohexane-carboxamide], the IC50 stood at 0.389 µM in test [1] and 0.00051 µM in test [2].

Take `COc1ccccc1-c1nc(-c2ccc(N3CCS(=O)(=O)CC3)cc2)c([C@@H]2CCCC[C@H]2C(=O)NC2(C#N)CC2)o1` [Example 72, (1R,2R)-N-(1-cyanocyclopropyl)-2-(4-(4-(1,1-dioxidothiomorpholino)phenyl)-2-(2-methoxyphenyl)oxazol-5-yl)cyclohexanecarboxamide]: the IC50 in test [1] is 0.75 µM; in test [2] it was 0.00149 µM.

Consider `N#CC1(NC(=O)[C@@H]2CCCC[C@H]2c2oc(-c3ccc(F)cc3)nc2-c2ccc(N3CCS(=O)(=O)CC3)cc2)CC1` [Example 7, (1R,2R)—N-(1-Cyanocyclopropyl)-2-{4-[4-(1,1-dioxo-1λ^6-thiomorpholin-4-yl)phenyl]-2-(4-fluorophenyl)-1,3-oxazol-5-yl}cyclohexanecarboxamide], for which the IC50 in test [1] worked out at 0.84 µM; in test [2] it was 0.00149 µM.

For the compound `N#CC1(NC(=O)[C@@H]2CCCC[C@H]2c2oc(-c3cccc(OC(F)(F)F)c3)nc2-c2ccc(N3CCS(=O)(=O)CC3)cc2)CC1` [Example 86, (1R,2R)-N-(1-cyanocyclopropyl)-2-(4-(4-(1,1-dioxidothiomorpholino)phenyl)-2-(3-(trifluoromethoxy)phenyl)oxazol-5-yl)cyclohexanecarboxamide], the IC50 worked out at 1.83 µM in test [1] and 0.00262 µM in test [2].

With `CC(C#N)NC(=O)[C@@H]1CCCC[C@H]1c1oc(-c2ccc(F)cc2)nc1-c1ccc(N2CCS(=O)(=O)CC2)cc1` (single isomer, unassigned) [Example 121, (1R,2R)-N-((R or S)-1-cyanoethyl)-2-(4-(4-(1,1-dioxidothiomorpholino)phenyl)-2-(4-fluorophenyl)oxazol-5-yl)cyclohexanecarboxamide], the IC50 in test [1] was not below 10 µM; in test [2], 0.0241 µM.

Values taken from patent US9458181B2, “Cathepsin cysteine protease inhibitors” (Merck Sharp & Dohme Corp., priority 2013, dated 2016).
